Measurements: patent US7314885B2, “Pyrrole compounds useful as kinase inhibitors” (Vertex Pharmaceuticals Incorporated, priority 2003, dated 2008)
pKi: −log10 of the molar value.

Target: c-Met (Homo sapiens, UniProt P08581)
Assay: Ki determination for the inhibition of c-Met (coupled enzyme system)
Format: biochemical
Settings: coupled enzyme assay; 200 μM ATP, 10 μM polyGluTyr, 80 nM c-Met, 30° C.
Description: Ki Determination for the Inhibition of c-Met
Compounds were screened for their ability to inhibit c-Met kinase activity using a standard coupled enzyme system (Fox et al., Protein Sci. 1998, 7, 2249). Reactions were carried out in a solution containing 100 mM HEPES (pH 7.5), 10 mM MgCl2, 25 mM NaCl, 300 μM NADH, 1 mM DTT, and 1.5% DMSO. Final substrate concentrations in the assay were 200 μM ATP (Sigma Chemicals, St Louis, Mo.) and 10 μM polyGluTyr (Sigma Chemical Company, St. Louis). Reactions were carried out at 30° C. and 80 nM c-Met. Final concentrations of the components of the coupled enzyme system were 2.5 mM phosphoenolpyruvate, 300 μM NADH, 30 μg/ml pyruvate kinase and 10 μg/ml lactate dehydrogenase.
An assay stock buffer solution was prepared containing all of the reagents listed above with the exception of ATP and a test compound of the present invention. The assay stock buffer solution (175 μl) was incubated in a 96 well plate with 5 μl of the test compound of the present invention at final concentrations spanning 0.006 μM to 12.5 μM at 30° C. for 10 minutes. Typically, a 12-point titration was conducted by preparing serial dilutions (from 10 mM compound stocks) with DMSO of the test compounds of the present invention in daughter plates. The reaction was initiated by the addition of 20 μl of ATP (final concentration 200 μM). Rates of reaction were obtained using a Molecular Devices Spectramax plate reader (Sunnyvale, Calif.) over 10 minutes at 30° C. The Ki values were determined from the rate data as a function of inhibitor concentration.

c-Met, sequence (P08581 25-1390): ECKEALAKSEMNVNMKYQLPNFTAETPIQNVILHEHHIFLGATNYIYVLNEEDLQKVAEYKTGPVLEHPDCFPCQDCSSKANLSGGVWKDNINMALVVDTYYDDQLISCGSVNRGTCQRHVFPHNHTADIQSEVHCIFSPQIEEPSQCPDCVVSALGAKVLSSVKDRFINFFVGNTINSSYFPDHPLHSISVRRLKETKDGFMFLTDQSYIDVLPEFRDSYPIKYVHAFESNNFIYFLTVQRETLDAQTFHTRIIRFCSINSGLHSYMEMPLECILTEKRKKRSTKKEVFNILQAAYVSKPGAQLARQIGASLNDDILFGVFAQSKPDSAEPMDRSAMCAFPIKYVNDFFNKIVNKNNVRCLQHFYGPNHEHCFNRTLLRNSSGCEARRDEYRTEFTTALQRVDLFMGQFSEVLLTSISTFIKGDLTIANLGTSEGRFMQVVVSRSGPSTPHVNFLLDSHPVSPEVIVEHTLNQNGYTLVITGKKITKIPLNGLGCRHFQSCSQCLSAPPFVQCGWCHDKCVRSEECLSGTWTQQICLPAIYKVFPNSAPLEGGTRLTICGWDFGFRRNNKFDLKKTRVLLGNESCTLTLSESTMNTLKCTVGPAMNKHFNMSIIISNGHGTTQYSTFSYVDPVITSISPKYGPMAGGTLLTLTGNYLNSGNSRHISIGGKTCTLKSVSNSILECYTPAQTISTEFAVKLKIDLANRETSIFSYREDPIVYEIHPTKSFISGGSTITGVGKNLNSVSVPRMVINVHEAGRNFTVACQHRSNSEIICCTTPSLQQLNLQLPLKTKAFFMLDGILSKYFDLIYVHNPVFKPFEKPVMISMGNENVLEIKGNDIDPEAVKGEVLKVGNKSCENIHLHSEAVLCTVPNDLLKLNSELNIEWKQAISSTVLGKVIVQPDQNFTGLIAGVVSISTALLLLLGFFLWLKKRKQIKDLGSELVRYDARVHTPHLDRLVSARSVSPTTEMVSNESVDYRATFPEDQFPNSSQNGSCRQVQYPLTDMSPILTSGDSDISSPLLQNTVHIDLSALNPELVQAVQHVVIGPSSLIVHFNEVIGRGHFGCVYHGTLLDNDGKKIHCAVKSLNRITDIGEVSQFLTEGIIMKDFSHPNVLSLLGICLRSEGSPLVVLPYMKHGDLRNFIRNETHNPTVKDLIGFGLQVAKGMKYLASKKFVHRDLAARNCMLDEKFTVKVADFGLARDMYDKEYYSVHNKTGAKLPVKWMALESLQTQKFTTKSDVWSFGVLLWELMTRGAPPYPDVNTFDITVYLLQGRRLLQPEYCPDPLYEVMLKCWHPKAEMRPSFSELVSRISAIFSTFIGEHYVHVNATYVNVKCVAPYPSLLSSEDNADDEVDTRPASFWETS

| pKi | SMILES |
| --- | --- |
| 5.00 to 6.00 | O=C(NC[C@@H]1CCCO1)c1cc(-c2cncn2-c2cccc(F)c2F)c[nH]1 (stereo in doubt) [Compound I-16, 4-[3-(2,3-Difluoro-phenyl)-3H-imidazol-4-yl]-1H-pyrrole-2-carboxylic acid (tetrahydro-furan-2-ylmethyl)-amide] |
| 5.00 to 6.00 | O=C(NC[C@@H]1CCCO1)c1cc(-c2nnnn2-c2cccc(F)c2F)c[nH]1 (stereo in doubt) [Compound I-24, 4-[1-(2,3-Difluoro-phenyl)-1H-tetrazol-5-yl]-1H-pyrrole-2-carboxylic acid (tetrahydro-furan-2-ylmethyl)-amide] |
| 5.00 to 6.00 | O=C(NC[C@@H]1CCCO1)c1cc(-c2cnoc2-c2cccc(F)c2F)c[nH]1 [Compound I-4, 4-[5-(2,3-Difluoro-phenyl)-isoxazol-4-yl]-1H-pyrrole-2-carboxylic acid (S-tetrahydro-furan-2-ylmethyl)-amide] |
| 5.00 to 6.00 | O=C(NC[C@@H]1CCCO1)c1cc(-n2cncc2-c2cccc(F)c2F)c[nH]1 [Compound I-10, 4-[5-(2,3-Difluoro-phenyl)-imidazol-1-yl]-1H-pyrrole-2-carboxylic acid (S-tetrahydro-furan-2-ylmethyl)-amide] |
| < 5.00 | O=C(c1cc(-c2nncn2-c2cccc(F)c2F)c[nH]1)N1CC=CC1 [Compound I-37, (4-(4-(2,3-difluorophenyl)-4H-1,2,4-triazol-3-yl)-1H-pyrrol-2-yl)(2H-pyrrol-1(5H)-yl)methanone] |
| 5.00 to 6.00 | O=C(c1cc(-n2nnnc2-c2cccc(F)c2F)c[nH]1)N1CC=CC1 [Compound I-38, (4-(5-(2,3-difluorophenyl)-1H-tetrazol-1-yl)-1H-pyrrol-2-yl)(2H-pyrrol-1(5H)-yl)methanone] |
| 5.00 to 6.00 | O=C(NC[C@@H]1CCCO1)c1cc(-c2nncn2-c2cccc(Cl)c2Cl)c[nH]1 [Compound I-39] |
| 5.00 to 6.00 | O=C(c1cc(-c2nncn2-c2cccc(Cl)c2Cl)c[nH]1)N1CC=CC1 [Compound I-40] |
| 5.00 to 6.00 | O=C(NCCCn1ccnc1)c1cc(-c2nncn2-c2cccc(Cl)c2Cl)c[nH]1 [Compound I-41] |
| < 5.00 | O=C(NCCCn1ccnc1)c1cc(-n2cnnc2-c2cccc(F)c2F)c[nH]1 [Compound I-44, N-(3-(1H-imidazol-1-yl)propyl)-4-(3-(2,3-difluorophenyl)-4H-1,2,4-triazol-4-yl)-1H-pyrrole-2-carboxamide] |
| 5.00 to 6.00 | O=C(NC[C@@H]1CCCO1)c1cc(-c2sncc2-c2cccc(F)c2F)c[nH]1 [Compound I-46, 4-(4-(2,3-difluorophenyl)isothiazol-5-yl)-N-(((S)-tetrahydrofuran-2-yl)methyl)-1H-pyrrrole-2-carboxamide] |
| 5.00 to 6.00 | O=C(c1cc(-c2[nH]nnc2-c2cccc(F)c2F)c[nH]1)N1CCCC1 [Compound I-47] |
